Measured values: ChEMBL document CHEMBL5137025, “Tuberculosis Drug Discovery: Challenges and New Horizons” (J Med Chem, 2022)
pEC50, pIC50: −log10 of the molar value. Values after ≈ are worked out from the molar mass of the structure shown.

Columns and labels:
[1] = test system: Mycobacterium tuberculosis; assay type: functional, H37Rv; settings: dose 100 mg/kg; route po; time 4 weeks
[2] = test system: Mycobacterium tuberculosis; assay type: functional, H37Rv; settings: dose 20-200 mg/kg; route po; time 4 weeks
[3] = target: Voltage-gated inwardly rectifying potassium channel KCNH2 (Homo sapiens, UniProt Q12809)
[4] = test system: Mycobacterium tuberculosis; assay type: functional; settings: H37Rv, 168 h, time 7 day
[5] = Stability in mouse liver microsome assessed as half life by Reverse-phase HPLC analysis; assay type: ADME; settings: liver microsomes
[6] = Protein binding in human plasma incubated for 5 hrs by LC-MS/MS analysis; assay type: ADME, cell-free; settings: read-out: PPB (converted)
[7] = test system: Mycobacterium tuberculosis; assay type: functional, H37Rv; settings: dose 10 mg/kg; route po; time 2 weeks
[8] = test system: Mycobacterium tuberculosis; assay: Antibacterial activity against Mycobacterium tuberculosis infected in macrophage assessed as inhibition of bacterial growth; assay type: functional, organism-based
[9] = Solubility of the compound in PBS at pH 7.4 incubated for 24 hrs by LC-MS analysis; assay type: physicochemical
[10] = Metabolic stability in CD-1 mouse liver microsomes assessed as half life measured for 5 to 40 mins by LC-MS/MS analysis; assay type: ADME, Microsome; settings: time 5-40 min
[11] = test system: Mycobacterium tuberculosis; assay type: functional, H37Rv; settings: dose 400 mg/kg; route sc; time 3 weeks
[12] = test system: Mycobacterium tuberculosis; assay type: functional; settings: H37Rv, 336 h, time 14 day
[13] = test system: Mycobacterium tuberculosis; assay type: functional; settings: H37Rv, time 6 day
[14] = test system: Mycobacterium tuberculosis; assay type: functional, H37Rv; settings: dose 18 mg/kg; time 8 day
[15] = Half life in mouse; assay type: ADME, organism-based; settings: in vivo
[16] = test system: Mycobacterium tuberculosis; assay type: functional; settings: H37Rv
[17] = test system: Mycobacterium tuberculosis; assay: Antibacterial activity against Mycobacterium tuberculosis Beijing strain in acute Mtb infection BALB/c mouse model assessed as reduction in log10 CFU in lungs at 50 mg/kg, po for 3 weeks; assay type: functional
[18] = test system: Mycobacterium tuberculosis; assay: Antibacterial activity against Mycobacterium tuberculosis infected in macrophage assessed as inhibition of bacterial growth in presence of Ethionamide; assay type: functional, organism-based
[19] = test system: Mycobacterium tuberculosis; assay type: functional, H37Rv; settings: dose 50 mg/kg; route po; time 15 day
Cytochrome P450 2C19 = Cytochrome P450 2C19 (Homo sapiens, UniProt P33261); assay: Inhibition of CYP2C19 in human liver microsome in presence of NADPH measured after 10 mins by LC/MS/MS analysis; assay type: ADME, microsomes
[20] = Metabolic stability in rat liver microsomes assessed as half life in presence of NADPH regenerating system measured for 5 to 60 mins by LC/MS/MS analysis; assay type: ADME, Microsome; settings: time 5-60 min
[21] = Metabolic stability in human liver microsomes assessed as half life in presence of NADPH regenerating system measured for 5 to 60 mins by LC/MS/MS analysis; assay type: ADME, Microsome; settings: time 5-60 min
HepG2 = assay: Cytotoxicity against human HepG2 cells; assay type: functional
[22] = Oral bioavailability in Sprague-Dawley rat at 5 mg/kg measured for 0.083 to 24 hrs by LC-MS/MS analysis; assay type: ADME, organism-based; settings: in vivo, time 0.083-24 hrs
[23] = Metabolic stability in mouse liver microsomes assessed as half life in presence of NADPH regenerating system measured for 5 to 60 mins by LC/MS/MS analysis; assay type: ADME, Microsome; settings: time 5-60 min
[24] = test system: Mycobacterium tuberculosis; assay: microbe, parasite or virus in culture; settings: H37Rv
Description: Antibacterial activity against Mycobacterium tuberculosis H37Rv assessed as inhibition of bacterial growth

[25] = Inhibition of Mycobacterium tuberculosis Shikimate dehydrogenase expressed in Escherichia coli BL21 using shikimic acid as substrate incubated for 60 mins in presence of NADP+ by enzymatic assay
Cytochrome P450 1A2 = target: T1, Cytochrome P450 1A2 (Homo sapiens, UniProt P05177); assay: Inhibition of CYP1A2 in human liver microsome in presence of NADPH measured after 10 mins by LC/MS/MS analysis; assay type: microsomes
T1 sequence (P05177 whole entry): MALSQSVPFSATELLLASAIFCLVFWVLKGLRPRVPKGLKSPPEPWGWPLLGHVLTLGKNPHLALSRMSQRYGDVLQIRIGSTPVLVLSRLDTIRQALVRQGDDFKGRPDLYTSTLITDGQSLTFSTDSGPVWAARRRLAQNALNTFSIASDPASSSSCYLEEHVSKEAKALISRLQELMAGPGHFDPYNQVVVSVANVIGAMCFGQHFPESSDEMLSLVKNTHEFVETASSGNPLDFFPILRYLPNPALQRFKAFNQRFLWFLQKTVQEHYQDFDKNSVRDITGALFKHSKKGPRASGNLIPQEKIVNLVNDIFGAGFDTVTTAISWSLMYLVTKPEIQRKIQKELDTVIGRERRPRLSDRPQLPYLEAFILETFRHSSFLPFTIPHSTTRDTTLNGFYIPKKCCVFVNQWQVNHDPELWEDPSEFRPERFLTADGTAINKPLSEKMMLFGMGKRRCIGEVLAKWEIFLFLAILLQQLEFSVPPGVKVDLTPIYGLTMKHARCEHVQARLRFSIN

Cytochrome P450 2C9 = Cytochrome P450 2C9 (Homo sapiens, UniProt P11712); assay: Inhibition of CYP2C9 in human liver microsome in presence of NADPH measured after 10 mins by LC/MS/MS analysis; assay type: ADME, microsomes
[26] = Half life in Sprague-Dawley rat at 5 mg/kg, po measured for 0.083 to 24 hrs by LC-MS/MS analysis; assay type: ADME, organism-based; settings: in vivo, time 0.083-24 hrs
[27] = test system: Mycobacterium tuberculosis; assay: Antibacterial activity against Mycobacterium tuberculosis in acute Mtb infection mouse model assessed as reduction in log10 CFU at 25 mg/kg treated for 3 weeks; assay type: functional
[28] = Inhibition of bacterial DdlA; design: species or system Bacteria
[29] = test system: Mycobacterium tuberculosis; assay type: functional; settings: H37Rv, 336 h, time 14 day; remark: listed apart in the source
[30] = test system: Mycobacterium tuberculosis; assay: Antibacterial activity against Mycobacterium tuberculosis in acute Mtb infection mouse model assessed as reduction in log10 CFU at 200 mg/kg for 3 weeks in presence of Rifampicin; assay type: functional
[31] = test system: Mycobacterium tuberculosis; assay: Antibacterial activity against Mycobacterium tuberculosis in acute Mtb infection mouse model assessed as reduction in log10 CFU at 200 mg/kg for 3 weeks; assay type: functional
[32] = test system: Mycobacterium tuberculosis; assay type: functional; settings: H37Rv, 336 h, time 14 day; remark: listed apart in the source
[33] = test system: Mycobacterium tuberculosis; assay type: functional; settings: H37Rv, 336 h, time 14 day; remark: listed apart in the source
[34] = test system: Mycobacterium tuberculosis; assay: Antibacterial activity against Mycobacterium tuberculosis in acute Mtb infection 129sv dehydropeptidase-1 KO mouse model assessed as reduction in log10 CFU administered twice daily for 6 days in presence of clavulanate; assay type: functional; settings: time 6 day
[35] = test system: Mycobacterium tuberculosis; assay: Antibacterial activity against Mycobacterium tuberculosis in acute Mtb infection 129sv dehydropeptidase-1 KO mouse model assessed as reduction in log10 CFU administered orally twice daily for 6 days; assay type: functional; settings: route po; time 6 day
[36] = test system: Mycobacterium tuberculosis; assay type: functional, THP-1; settings: H37Rv
[37] = test system: Mycobacterium tuberculosis; assay: Antibacterial activity against Mycobacterium tuberculosis in acute Mtb infection 129sv dehydropeptidase-1 KO mouse model assessed as reduction in log10 CFU administered subcutaneously twice daily for 6 days; assay type: functional; settings: route sc; time 6 day
[38] = test system: Mycobacterium tuberculosis; assay: Antibacterial activity against Mycobacterium tuberculosis in acute Mtb infection BALB/c mouse model assessed as reduction in log10 CFU treated for 6 days; assay type: functional; settings: time 6 day
[39] = test system: Mycobacterium tuberculosis; assay type: functional, THP-1; settings: H37Rv; remark: listed apart in the source

Cytochrome P450 2C9, sequence (P11712 whole entry): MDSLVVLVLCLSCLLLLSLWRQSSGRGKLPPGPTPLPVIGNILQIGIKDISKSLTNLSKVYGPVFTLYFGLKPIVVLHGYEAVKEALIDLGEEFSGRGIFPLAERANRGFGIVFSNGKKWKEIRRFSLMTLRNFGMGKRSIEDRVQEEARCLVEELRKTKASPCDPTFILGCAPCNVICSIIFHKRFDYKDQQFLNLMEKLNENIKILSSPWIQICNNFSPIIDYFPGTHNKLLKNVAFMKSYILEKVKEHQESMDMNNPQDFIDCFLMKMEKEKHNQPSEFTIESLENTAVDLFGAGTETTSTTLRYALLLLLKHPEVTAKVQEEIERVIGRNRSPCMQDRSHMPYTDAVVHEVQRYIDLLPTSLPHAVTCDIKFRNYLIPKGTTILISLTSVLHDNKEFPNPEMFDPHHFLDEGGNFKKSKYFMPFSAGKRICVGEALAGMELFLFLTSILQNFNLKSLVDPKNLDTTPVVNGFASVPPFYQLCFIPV
Voltage-gated inwardly rectifying potassium channel KCNH2, sequence (Q12809 whole entry): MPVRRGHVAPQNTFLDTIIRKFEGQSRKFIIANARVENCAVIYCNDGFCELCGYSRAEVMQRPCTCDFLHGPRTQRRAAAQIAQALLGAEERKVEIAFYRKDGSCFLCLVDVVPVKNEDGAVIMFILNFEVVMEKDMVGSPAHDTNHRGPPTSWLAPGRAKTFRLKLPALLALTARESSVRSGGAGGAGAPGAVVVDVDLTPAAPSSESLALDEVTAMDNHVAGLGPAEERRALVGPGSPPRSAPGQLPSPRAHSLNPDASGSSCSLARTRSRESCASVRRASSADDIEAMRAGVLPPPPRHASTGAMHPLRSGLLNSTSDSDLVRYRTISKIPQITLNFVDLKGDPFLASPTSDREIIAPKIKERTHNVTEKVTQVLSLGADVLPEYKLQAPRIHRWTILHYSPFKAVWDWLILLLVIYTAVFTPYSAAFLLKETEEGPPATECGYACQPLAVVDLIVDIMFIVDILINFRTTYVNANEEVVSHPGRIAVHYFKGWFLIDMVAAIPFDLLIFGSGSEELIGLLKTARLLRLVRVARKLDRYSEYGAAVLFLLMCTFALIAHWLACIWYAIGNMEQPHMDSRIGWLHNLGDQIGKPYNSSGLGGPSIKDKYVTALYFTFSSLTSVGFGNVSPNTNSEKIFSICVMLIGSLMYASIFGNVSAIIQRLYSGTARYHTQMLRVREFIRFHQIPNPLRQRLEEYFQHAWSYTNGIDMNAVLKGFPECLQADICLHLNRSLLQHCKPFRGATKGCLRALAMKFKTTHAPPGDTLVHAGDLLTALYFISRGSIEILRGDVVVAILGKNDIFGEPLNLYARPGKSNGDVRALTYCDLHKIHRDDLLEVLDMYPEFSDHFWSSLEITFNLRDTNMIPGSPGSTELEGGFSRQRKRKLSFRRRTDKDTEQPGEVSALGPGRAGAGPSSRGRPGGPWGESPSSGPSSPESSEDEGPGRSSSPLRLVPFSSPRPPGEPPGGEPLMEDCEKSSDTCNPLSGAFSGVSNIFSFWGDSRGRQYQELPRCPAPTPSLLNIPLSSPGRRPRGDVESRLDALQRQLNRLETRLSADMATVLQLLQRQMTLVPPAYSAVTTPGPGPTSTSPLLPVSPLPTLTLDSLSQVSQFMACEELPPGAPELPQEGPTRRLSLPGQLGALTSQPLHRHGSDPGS
Cytochrome P450 2C19, sequence (P33261 whole entry): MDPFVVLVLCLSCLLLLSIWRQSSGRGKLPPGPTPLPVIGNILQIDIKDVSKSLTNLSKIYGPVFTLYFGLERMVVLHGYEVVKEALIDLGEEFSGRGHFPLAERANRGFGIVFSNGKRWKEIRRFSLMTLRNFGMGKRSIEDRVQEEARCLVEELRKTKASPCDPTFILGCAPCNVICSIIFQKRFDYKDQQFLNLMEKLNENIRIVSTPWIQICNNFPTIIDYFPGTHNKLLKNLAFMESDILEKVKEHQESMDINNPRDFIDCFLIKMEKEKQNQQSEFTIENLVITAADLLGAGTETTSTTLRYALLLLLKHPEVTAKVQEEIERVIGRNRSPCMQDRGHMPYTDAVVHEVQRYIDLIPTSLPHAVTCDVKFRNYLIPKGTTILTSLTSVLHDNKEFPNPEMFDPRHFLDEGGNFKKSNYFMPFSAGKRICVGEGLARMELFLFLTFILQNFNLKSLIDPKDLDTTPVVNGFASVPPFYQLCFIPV

Cc1n[nH]c2ccc(NS(=O)(=O)CCCCF)cc12
Activity [1]: 2 log10CFU | Activity [2]: >2 log10CFU | pIC50 [3]: < 4.30 | MIC [4]: 0.2 µM (≈ 0.0571 µg/mL) | half-life [5]: 28 min | fraction unbound at 5 h [6]: 0.23

O=C(NCCC(F)(F)F)c1ccc(-c2noc(C3CC3)n2)cc1
Activity [7]: >2 log10CFU | pEC50 [8]: 7.14 | solubility at 24 h [9]: 30 µM (≈ 9.76 µg/mL) | half-life [10]: 19 min

CSC1=C(C(=O)[O-])N2C(=O)[C@H]([C@@H](C)O)[C@H]2[C@H]1C.[Na+]
Activity [11]: <2 log10CFU | MIC90 [12]: 0.9 µM

CCCCS(=O)(=O)Nc1ccc2[nH]ncc2c1
MIC [13]: 1.2 µM (≈ 0.304 µg/mL) | Activity [14]: 2 log10CFU

O=C(CCC(F)(F)F)N1CCC2(CC1)CC(c1ccccc1)=NO2
half-life [15]: 19 min | MIC [16]: 0.3 µM (≈ 0.102 µg/mL) | Activity [17]: 1 log10CFU | pEC50 [18]: 7.70

COc1ccc(OCc2nn3c(-c4ccc(Br)cc4)nnc3s2)cc1
Activity [19]: 1.7 log10CFU | pIC50 (Cytochrome P450 2C19): 6.25 | half-life [20]: 17 min | half-life [21]: 1.1 min | CC50 (HepG2): 50 µM | bioavailability [22]: 14% | half-life [23]: 1.2 min | MIC [24]: 4.8 µM (≈ 2 µg/mL) | pIC50 [25]: 4.54 | pIC50 (Cytochrome P450 1A2): 6.25 | pIC50 (Cytochrome P450 2C9): 6.25 | half-life [26]: 66 min

OC1(c2ccc(OC(F)F)cc2)C[N+](c2ccccc2)=C2CCCCN21.[Br-] (centres undefined)
CC50 (HepG2): 263 µM | MIC [24]: 1.1 µM | Activity [27]: 1.2 log10CFU | pIC50 [28]: 5.21

C[C@@H](O)[C@H]1C(=O)N2C(C(=O)[O-])=C(SC3Cn4cnc[n+]4C3)[C@H](C)[C@H]12 (some centres undefined) [BIAPENEM]
half-life [15]: 17.4 min | MIC90 [29]: 1.7 µM (≈ 0.596 µg/mL) | Activity [30]: 8.6 log10CFU | Activity [31]: 5.3 log10CFU | MIC90 [32]: 7.1 µM (≈ 2.49 µg/mL)

C[C@@H](O)[C@H]1C(=O)N2C(C(=O)O)=C(S[C@@H]3CN[C@H](C(=O)N(C)C)C3)[C@H](C)[C@H]12 [MEROPENEM]
MIC90 [33]: 10 µM (≈ 3.83 µg/mL) | half-life [15]: 27.6 min | Activity [11]: <2 log10CFU | Activity [34]: 1.7 log10CFU

CO[C@H]1CCC[C@H]2C1=C(C(=O)OC(C)OC(=O)OC1CCCCC1)N1C(=O)[C@H]([C@@H](C)O)[C@@H]21 (some centres undefined) [SANFETRINEM CILEXETIL]
Activity [35]: 1.4 log10CFU

CO[C@H]1CCC[C@H]2C1=C(C(=O)[O-])N1C(=O)[C@H]([C@@H](C)O)[C@@H]21.[Na+] [SANFETRINEM SODIUM]
MIC90 [36]: 5.6 µM | Activity [37]: 1.7 log10CFU | Activity [38]: 1.7 log10CFU | MIC [24]: 5 µM | MIC [39]: 5 µM
